Patent US11230717B2, “Plants having increased tolerance to herbicides” (BASF SE, priority 2013, dated 2022)
pKi: −log10 of the molar value.

Tests used:
[1] = target: T1, Hordeum HPPD (SEQ ID NO:2) (Hordeum vulgare, UniProt O48604, A164G/R146V/R147D/R148G); experiment: HPPD activity assay, in vitro characterization; assay type: biochemical
T1 construct: subcloned into a modified pET24D (Novagen) expression vector resulting in N-terminally His-tagged expression constructs; His (N); made in house; host or cells: E. coli BL21 (DE3)
T1 sequence (O48604 whole entry R146V/R147D/R148G/A164G): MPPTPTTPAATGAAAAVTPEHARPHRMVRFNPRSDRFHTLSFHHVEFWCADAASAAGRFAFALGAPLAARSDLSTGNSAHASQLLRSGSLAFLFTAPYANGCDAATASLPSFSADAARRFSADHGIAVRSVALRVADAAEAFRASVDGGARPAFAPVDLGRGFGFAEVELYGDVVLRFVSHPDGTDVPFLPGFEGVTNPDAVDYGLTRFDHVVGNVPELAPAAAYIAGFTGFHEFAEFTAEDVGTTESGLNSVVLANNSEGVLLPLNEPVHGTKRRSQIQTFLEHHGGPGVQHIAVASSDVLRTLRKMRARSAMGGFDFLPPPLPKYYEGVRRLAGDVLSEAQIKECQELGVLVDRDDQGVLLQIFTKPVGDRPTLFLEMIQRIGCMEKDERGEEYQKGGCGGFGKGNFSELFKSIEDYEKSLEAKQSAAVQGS
Method: (§1) HPPD produces homogentisic acid and CO2 from 4-hydroxyphenylpyruvate (4-HPP) and O2. The activity assay for HPPD is based on the analysis of homogentisic acid by reversed phase HPLC.
(§2) The assay mixture can contain 150 mM potassium phosphate buffer pH 7.0, 50 mM L-ascorbic acid, 100 μM Catalase (Sigma-Aldrich), 1 μM FeSO4 and 0.2 units of purified HPPD enzyme in a total volume of 505 μl. 1 unit is defined as the amount of enzyme that is required to produce 1 nmol of HGA per minute at 20° C.
(§3) After a preincubation of 30 min the reaction is started by adding 4-HPP to a final concentration of 0.05 mM. The reaction is allowed to proceed for 45 min at room temperature. The reaction is stopped by the addition of 50 μl of 4.5 M phosphoric acid. The sample is filtered using a […] pore size PVDF filtration device.
(§4) 5 μl of the cleared sample is analyzed on an UPLC HSS T3 column (particle size 1.8 μm, dimensions 2,1×50 mm; Waters) by isocratic elution using 90% 20 mM NaH2PO4 pH 2.2, 10% methanol (v/v).
(§5) HGA is detected electrochemically at 750 mV (mode: DC; polarity: positive) and quantified by integrating peak areas (Empower software; Waters).
(§6) Inhibitors are dissolved in DMSO (dimethylsulfoxide) to a concentration of 0.5 mM. From this stock solution serial five-fold dilutions are prepared in DMSO, which are used in the assay. The respective inhibitor solution accounts for 1% of the assay volume. […] Activities are normalized by setting the uninhibited enzyme activity to 100%. IC50 values are calculated using non-linear regression.
(§7) Using methods which are described in the above examples or well known in the art, purified, recombinant wildtype HPPD enzymes are characterized with respect to their kinetic properties and sensitivity towards HPPD inhibiting herbicides. Apparent michaelis constants (Km) and maximal reaction velocities (Vmax) are calculated by non-linear regression with the software GraphPad Prism 5 (GraphPad Software, La Jolla, USA) using a substrate inhibition model. […] Weighted means (by standard error) of Km and IC50 values are calculated from at least three independent experiments. […] To assess the potential performance of a herbicide tolerance trait a tolerance index (TI) is calculated using the following formula: […]

Arabidopsis HPPD = target: T2, Arabidopsis HPPD (Arabidopsis thaliana, UniProt P93836); experiment: HPPD activity assay (homogentisic acid by HPLC), in vitro characterization; assay type: biochemical
T2 construct: His6 (N); made in house; host or cells: E. coli BL21 (DE3)
T2 sequence (P93836 1-445): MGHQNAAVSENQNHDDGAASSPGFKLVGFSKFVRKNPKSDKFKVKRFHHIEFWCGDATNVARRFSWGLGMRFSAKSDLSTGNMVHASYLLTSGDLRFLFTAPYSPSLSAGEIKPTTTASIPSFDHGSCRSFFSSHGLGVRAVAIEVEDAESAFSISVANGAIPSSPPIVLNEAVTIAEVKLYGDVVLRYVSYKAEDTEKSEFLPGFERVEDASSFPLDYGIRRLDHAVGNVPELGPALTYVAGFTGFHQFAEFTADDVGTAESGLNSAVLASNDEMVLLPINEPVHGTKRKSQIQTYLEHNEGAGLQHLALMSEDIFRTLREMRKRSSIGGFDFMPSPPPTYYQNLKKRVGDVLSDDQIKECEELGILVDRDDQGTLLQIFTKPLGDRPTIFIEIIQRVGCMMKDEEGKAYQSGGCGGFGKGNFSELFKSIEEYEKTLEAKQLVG
Method: as §1, §2, §3, §4, §5, §6, §7

[2] = tested on: transgenic Arabidopsis plants; experiment: Greenhouse testing of transgenic Arabidopsis plants (T2), herbicide spray test; assay type: in vivo, Arabidopsis thaliana; settings: for Injury evaluation, scale 0-100%: Arabidopsis
Method: Transgenic plants expressing heterologous HPPD or HST enzymes are tested for tolerance against HPPD-inhibiting herbicides in greenhouse experiments.
For post emergence treatment, the test plants are first grown to a height of 3 to 15 cm, depending on the plant habit, and only then treated with the herbicides. For this purpose, the test plants are either sown directly and grown in the same containers, or they are first grown separately and transplanted into the test containers a few days prior to treatment. For testing of T0 plants, cuttings can be used. In the case of soybean plants, an optimal shoot for cutting is about 7.5 to 10 cm tall, with at least two nodes present. Each cutting is taken from the original transformant (mother plant) and dipped into rooting hormone powder (indole-3-butyric acid, IBA). The cutting is then placed in oasis wedges inside a bio-dome. Wild type cuttings are also taken simultaneously to serve as controls. The cuttings are kept in the bio-dome for 5-7 days and then transplanted to pots and then acclimated in the growth chamber for two more days. Subsequently, the cuttings are transferred to the greenhouse, acclimated for approximately 4 days, and then subjected to spray tests as indicated.
Additionally, T1 and T2 transgenic Arabidopsis plants can be tested for improved tolerance to HPPD-inhibiting herbicides in a greenhouse studies. Herbicide injury scoring is done 2-3 weeks after treatment and is rated on a scale of 0 to 100%, 0% being no injury and 100% being complete death.

In the case of CSc1c(Cl)cc(F)c(C(=O)Nc2nnnn2C)c1Cl [Inhibitor 2, 2,4-dichloro-6-fluoro-3-methylsulfanyl-N-(1-methyltetrazol-5-yl)benzamide], the pKi [1] was 7.96, the pKi (Arabidopsis HPPD) was 7.70 and the tolerance factor ([2]; Arabidopsis HvL320H, P321A, highest rate active ingredient applied) was “outstanding tolerance factor”. For the same molecule, the “tolerance compared to untransformed wild-type control” value ([2]; Arabidopsis expressing Rhodococcus HPPD (SEQ ID NO:46), highest concentration) was 2 fold, the “Injury evaluation, scale 0-100%” value ([2]; transgene AtF381I, 3.125 g/ha, two weeks) was 20% and the “Injury evaluation, scale 0-100%” value ([2]; transgene AtF381I, 6.25 g/ha, two weeks) was 25%. For the same molecule, the “Injury evaluation, scale 0-100%” value ([2]; transgene AtF381I, 12.5 g/ha, two weeks) was 40%, the “Injury evaluation, scale 0-100%” value ([2]; transgene AtM335H, P336A, E363Q, 1.56 g/ha, two weeks) was 0% and the “Injury evaluation, scale 0-100%” value ([2]; transgene AtM335H, P336A, E363Q, 3.125 g/ha, two weeks) was 7%. The “Injury evaluation, scale 0-100%” value ([2]; transgene AtM335H, P336A, E363Q, 6.25 g/ha, two weeks) was 7%, the “Injury evaluation, scale 0-100%” value ([2]; transgene AtM335H, P336A, E363Q, 12.5 g/ha, two weeks) was 47% and the “Injury evaluation, scale 0-100%” value ([2]; transgene HvL320H, P321A, 1.56 g/ha, two weeks) was 0%. For the same molecule, the “Injury evaluation, scale 0-100%” value ([2]; transgene HvL320H, P321A, 3.125 g/ha, two weeks) was 5%, the “Injury evaluation, scale 0-100%” value ([2]; transgene HvL320H, P321A, 6.25 g/ha, two weeks) was 7% and the “Injury evaluation, scale 0-100%” value ([2]; transgene HvL320H, P321A, 12.5 g/ha, two weeks) was 8%. The “Injury evaluation, scale 0-100%” value ([2]; transgene HvL320H, 1.56 g/ha, two weeks) was 0%, the “Injury evaluation, scale 0-100%” value ([2]; transgene HvL320H, 3.125 g/ha, two weeks) was 12% and the “Injury evaluation, scale 0-100%” value ([2]; transgene HvL320H, 6.25 g/ha, two weeks) was 18%. The “Injury evaluation, scale 0-100%” value ([2]; transgene HvL320H, 12.5 g/ha, two weeks) was 33%, the “Injury evaluation, scale 0-100%” value ([2]; transgene None, 1.56 g/ha, two weeks after treatment) was 86% and the “Injury evaluation, scale 0-100%” value ([2]; transgene None, 3.125 g/ha, two weeks after treatment) was 87%. For the same molecule, the “Injury evaluation, scale 0-100%” value ([2]; transgene None, 6.25 g/ha, two weeks after treatment) was 98%, the “Injury evaluation, scale 0-100%” value ([2]; transgene None, 12.5 g/ha, two weeks after treatment) was 94% and the “Injury evaluation, scale 0-100%” value ([2]; transgene RjHPPD, 1.56 g/ha, two weeks) was 2%. The “Injury evaluation, scale 0-100%” value ([2]; transgene RjHPPD, 3.125 g/ha, two weeks) was 12%, the “Injury evaluation, scale 0-100%” value ([2]; transgene RjHPPD, 6.25 g/ha, two weeks) was 13% and the “Injury evaluation, scale 0-100%” value ([2]; transgene RjHPPD, 12.5 g/ha, two weeks) was 46%.

Molecule O=C(O)C(=O)Cc1ccc(O)cc1 [Inhibitor 4-HPP, 4-hydroxyphenylpyruvate, reference compound] has a Km ([1]; Hordeum HPPD, apparent michaelis constant, read-out: Km (4-HPP)) of 26 µM, a kcat ([1]; Hordeum HPPD, turnover number, substrate 4-HPP) of 11.5 s⁻¹ and a Km (Arabidopsis HPPD; Arabidopsis HPPD, apparent michaelis constant, read-out: Km (4-HPP)) of 13 µM. The kcat (Arabidopsis HPPD; Arabidopsis HPPD, turnover number, substrate 4-HPP) was 12.9 s⁻¹.
